Results on 18 molecules are retold here after patent US10660877B2 (BRISTOL-MYERS SQUIBB COMPANY, priority 2016, dated 2020).

For one test, the target named is human TLR8 (Homo sapiens (Human), UniProt Q9NR97). In words: TLR8 inhibition reporter assay (HEK-Blue cells, SEAP reporter, R848 stimulation).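 Note: compounds tested from 0.05 nM to 50 µM, 22 h at 37 °C, SEAP measured with HEK-Blue Detection, inhibition relative to agonist plus DMSO versus a known inhibitor.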
The target of a further test is human TLR7 (Homo sapiens (Human), UniProt Q9NYK1). In words: TLR7 inhibition reporter assay (HEK-Blue cells, SEAP reporter, gardiquimod stimulation). It is filed as cell-based. The settings on record: HEK-Blue cells overexpressing human TLR7, gardiquimod 7.5 μM. (In general: In a reporter assay the amount or activity of a reporter protein is the signal.)
Sequence of human TLR7 (Q9NYK1 27-1049): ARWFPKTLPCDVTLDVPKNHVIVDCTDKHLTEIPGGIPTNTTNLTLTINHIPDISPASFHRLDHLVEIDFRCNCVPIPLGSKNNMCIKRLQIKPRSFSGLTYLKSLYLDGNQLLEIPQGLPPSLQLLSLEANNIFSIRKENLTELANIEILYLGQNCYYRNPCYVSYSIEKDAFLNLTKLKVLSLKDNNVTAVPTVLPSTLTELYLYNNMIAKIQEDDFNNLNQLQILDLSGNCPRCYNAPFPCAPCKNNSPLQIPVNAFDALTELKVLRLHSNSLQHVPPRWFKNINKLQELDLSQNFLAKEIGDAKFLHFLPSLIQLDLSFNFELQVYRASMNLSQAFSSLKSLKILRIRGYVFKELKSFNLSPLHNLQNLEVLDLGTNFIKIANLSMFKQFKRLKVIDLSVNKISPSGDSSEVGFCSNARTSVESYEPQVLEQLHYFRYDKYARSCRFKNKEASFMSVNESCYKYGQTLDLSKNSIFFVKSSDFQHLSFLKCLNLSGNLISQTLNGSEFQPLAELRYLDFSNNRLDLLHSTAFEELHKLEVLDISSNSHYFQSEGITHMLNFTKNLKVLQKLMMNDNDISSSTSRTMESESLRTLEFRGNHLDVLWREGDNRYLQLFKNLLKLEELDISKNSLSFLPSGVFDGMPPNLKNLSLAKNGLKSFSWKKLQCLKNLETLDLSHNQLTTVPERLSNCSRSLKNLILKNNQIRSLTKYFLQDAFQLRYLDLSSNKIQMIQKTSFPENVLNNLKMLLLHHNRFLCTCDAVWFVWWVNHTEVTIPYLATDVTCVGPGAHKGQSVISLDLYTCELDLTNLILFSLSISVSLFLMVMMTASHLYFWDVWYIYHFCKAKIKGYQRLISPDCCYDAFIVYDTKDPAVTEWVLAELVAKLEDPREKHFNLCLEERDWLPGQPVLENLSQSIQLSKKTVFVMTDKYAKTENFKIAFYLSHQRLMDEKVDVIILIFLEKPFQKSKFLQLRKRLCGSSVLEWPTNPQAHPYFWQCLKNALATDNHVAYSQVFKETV
A further test concerns the target human TLR9 (Homo sapiens (Human), UniProt Q9NR96). Kind of test: TLR9 inhibition reporter assay (HEK-Blue cells, SEAP reporter, ODN2006 stimulation).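 Note: compounds tested over 0.05 nM to 50 µM, 22 h incubation, inhibition taken as SEAP signal drop from agonist plus DMSO wells toward a known inhibitor control.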
Setting [1] is: read-out: TLR8 IC50, HEK-Blue cells overexpressing human TLR8, R848 15.9 μM.
[2] abbreviates: read-out: TLR9 IC50, HEK-Blue cells overexpressing human TLR9, ODN2006 5 nM.

What is called IC50 is the concentration needed to halve the response being measured.

Where two headings read alike, the source gives them in different places.

Sequence of human TLR9 (Q9NR96 26-1032): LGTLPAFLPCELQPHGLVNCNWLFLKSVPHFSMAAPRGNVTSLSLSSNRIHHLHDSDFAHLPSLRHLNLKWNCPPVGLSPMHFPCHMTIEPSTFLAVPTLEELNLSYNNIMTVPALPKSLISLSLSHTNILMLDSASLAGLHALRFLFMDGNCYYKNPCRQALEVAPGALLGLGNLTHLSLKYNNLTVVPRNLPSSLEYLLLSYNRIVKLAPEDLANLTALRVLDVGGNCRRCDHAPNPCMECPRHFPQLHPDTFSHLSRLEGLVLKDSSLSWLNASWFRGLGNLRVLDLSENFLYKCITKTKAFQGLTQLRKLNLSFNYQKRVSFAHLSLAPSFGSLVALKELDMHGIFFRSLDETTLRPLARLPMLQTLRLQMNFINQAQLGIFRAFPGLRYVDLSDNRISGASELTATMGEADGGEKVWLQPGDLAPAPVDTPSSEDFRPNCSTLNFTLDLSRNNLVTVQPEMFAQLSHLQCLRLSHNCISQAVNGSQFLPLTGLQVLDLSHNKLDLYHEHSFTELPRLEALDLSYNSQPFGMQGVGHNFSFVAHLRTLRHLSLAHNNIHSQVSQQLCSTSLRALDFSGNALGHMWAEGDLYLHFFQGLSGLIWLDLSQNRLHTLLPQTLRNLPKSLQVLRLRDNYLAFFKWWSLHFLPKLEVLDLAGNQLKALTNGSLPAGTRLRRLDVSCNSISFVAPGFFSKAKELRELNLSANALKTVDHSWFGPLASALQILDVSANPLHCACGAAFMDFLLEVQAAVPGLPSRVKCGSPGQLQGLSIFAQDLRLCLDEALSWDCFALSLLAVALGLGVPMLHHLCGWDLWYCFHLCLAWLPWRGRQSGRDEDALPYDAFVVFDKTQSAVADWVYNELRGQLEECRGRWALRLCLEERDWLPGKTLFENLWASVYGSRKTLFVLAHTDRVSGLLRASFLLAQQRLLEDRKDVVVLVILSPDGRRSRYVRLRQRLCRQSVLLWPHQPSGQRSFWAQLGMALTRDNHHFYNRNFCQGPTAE
Sequence of human TLR8 (Q9NR97 27-1041): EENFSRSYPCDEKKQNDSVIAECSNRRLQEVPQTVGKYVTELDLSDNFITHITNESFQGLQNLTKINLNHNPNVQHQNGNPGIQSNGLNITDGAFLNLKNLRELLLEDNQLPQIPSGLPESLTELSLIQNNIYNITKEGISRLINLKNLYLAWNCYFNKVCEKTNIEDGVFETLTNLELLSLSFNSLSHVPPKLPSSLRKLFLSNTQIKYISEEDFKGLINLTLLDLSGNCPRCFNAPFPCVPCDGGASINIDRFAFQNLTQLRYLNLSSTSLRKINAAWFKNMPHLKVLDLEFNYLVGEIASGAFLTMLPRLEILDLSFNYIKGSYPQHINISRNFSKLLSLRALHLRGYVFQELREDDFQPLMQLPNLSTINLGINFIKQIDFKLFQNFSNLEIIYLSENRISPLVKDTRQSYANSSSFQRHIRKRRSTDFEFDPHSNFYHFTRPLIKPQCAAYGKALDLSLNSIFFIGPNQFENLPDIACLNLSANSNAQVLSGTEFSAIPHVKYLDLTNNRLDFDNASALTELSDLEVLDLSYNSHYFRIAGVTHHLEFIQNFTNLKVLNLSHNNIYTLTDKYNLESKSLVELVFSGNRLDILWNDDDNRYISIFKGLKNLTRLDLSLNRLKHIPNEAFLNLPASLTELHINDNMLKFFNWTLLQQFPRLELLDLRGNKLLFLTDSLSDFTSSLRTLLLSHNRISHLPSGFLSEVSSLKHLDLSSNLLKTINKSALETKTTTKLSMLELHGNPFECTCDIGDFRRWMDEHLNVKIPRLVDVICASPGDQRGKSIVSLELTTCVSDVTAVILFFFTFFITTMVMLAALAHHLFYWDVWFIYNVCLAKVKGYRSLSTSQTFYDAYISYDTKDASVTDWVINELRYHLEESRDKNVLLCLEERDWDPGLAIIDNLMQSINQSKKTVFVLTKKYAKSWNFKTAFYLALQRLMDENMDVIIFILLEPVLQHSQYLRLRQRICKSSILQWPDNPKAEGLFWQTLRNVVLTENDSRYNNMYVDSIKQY

`Cc1cc(-c2[nH]c3ccc(C4CCN(C(=O)CCNS(=O)(=O)c5ccccc5)CC4)cc3c2C(C)C)cc(C)n1` [Example 120, N-(3-(4-(2-(2,6-dimethylpyridin-4-yl)-3-isopropyl-1H-indol-5-yl)piperidin-1-yl)-3-oxopropyl)benzenesulfonamide]: the IC50 on human TLR8 (setting [1]) was determined as 158 nM; against human TLR7, 12.5 nM; at human TLR9 (setting [2]), 16200 nM.
`Cc1cc(-c2[nH]c3ccc(C4CCN(C(=O)c5c(C)n[nH]c5C)CC4)cc3c2C(C)C)cc(C)n1` [Example 121, (3,5-dimethyl-1H-pyrazol-4-yl)(4-(2-(2,6-dimethylpyridin-4-yl)-3-isopropyl-1H-indol-5-yl)piperidin-1-yl)methanone]: the IC50 was found to be 98 nM at human TLR8 (setting [1]), 30 nM at human TLR7 and 10700 nM on human TLR9 (setting [2]).
For the molecule `Cc1cc(-c2[nH]c3ccc(C4CCN(C(=O)c5cccn(C6CC6)c5=O)CC4)cc3c2C(C)C)cc(C)n1` [Example 123, 1-cyclopropyl-3-(4-(2-(2,6-dimethylpyridin-4-yl)-3-isopropyl-1H-indol-5-yl)piperidine-1-carbonyl)pyridin-2(1H)-one], the half-maximal inhibitory concentration (IC50) amounted to 114 nM on human TLR8 (setting [1]), 20.5 nM at human TLR7 and 36600 nM on human TLR9 (setting [2]).
Regarding `Cc1cc(-c2[nH]c3ccc(C4CCN(C(=O)CCn5ccnc5C)CC4)cc3c2C(C)C)cc(C)n1` [Example 124, 1-(4-(2-(2,6-dimethylpyridin-4-yl)-3-isopropyl-1H-indol-5-yl)piperidin-1-yl)-3-(2-methyl-1H-imidazol-1-yl)propan-1-one], the IC50 on human TLR8 (setting [1]) amounted to 10.1 nM; against human TLR7 it was 1.9 nM; at human TLR9 (setting [2]) it was 394 nM.
In the same order, the values of `Cc1cc(-c2[nH]c3ccc(C4CCN(C(=O)CCn5nc(C)cc5C)CC4)cc3c2C(C)C)cc(C)n1` [Example 125, 3-(3,5-dimethyl-1H-pyrazol-1-yl)-1-(4-(2-(2,6-dimethylpyridin-4-yl)-3-isopropyl-1H-indol-5-yl)piperidin-1-yl)propan-1-one] are 224 nM, 47.4 nM and 45600 nM.
In the same order, the values of `Cc1cc(-c2[nH]c3ccc(C4CCN(C(=O)CCN5CCOCC5)CC4)cc3c2C(C)C)cc(C)n1` [Example 128, 1-(4-(2-(2,6-dimethylpyridin-4-yl)-3-isopropyl-1H-indol-5-yl)piperidin-1-yl)-3-morpholinopropan-1-one] are 15.5 nM, 3.9 nM and 730 nM.
For the molecule `Cc1cc(-c2[nH]c3ccc(C4CCN(C(=O)CC5CC(=O)NC(=O)N5)CC4)cc3c2C(C)C)cc(C)n1` (stereo not drawn) [Example 129, 6-(2-(4-(2-(2,6-dimethylpyridin-4-yl)-3-isopropyl-1H-indol-5-yl)piperidin-1-yl)-2-oxoethyl)dihydropyrimidine-2,4(1H,3H)-dione], the concentration for half-maximal inhibition (IC50) was 69.8 nM at human TLR8 (setting [1]), 18.1 nM at human TLR7 and 32300 nM at human TLR9 (setting [2]).
In the same order, the values of `Cc1cc(-c2[nH]c3ccc(C4CCN(C(=O)CC5C(=O)NC(=O)N5C)CC4)cc3c2C(C)C)cc(C)n1` (stereo not drawn) [Example 130, 5-(2-(4-(2-(2,6-dimethylpyridin-4-yl)-3-isopropyl-1H-indol-5-yl)piperidin-1-yl)-2-oxoethyl)-1-methylimidazolidine-2,4-dione] are 73.5 nM, 29.7 nM and 11800 nM.
Taken in the same sequence, the figures for `Cc1cc(-c2[nH]c3ccc(C4CCN(C(=O)c5c(C)nn(C)c5C)CC4)cc3c2C(C)C)cc(C)n1` [Example 131, (4-(2-(2,6-dimethylpyridin-4-yl)-3-isopropyl-1H-indol-5-yl)piperidin-1-yl)(1,3,5-trimethyl-1H-pyrazol-4-yl)methanone] were 77.1 nM, 12 nM and 17500 nM.
In the same order, the values of `Cc1cc(-c2[nH]c3ccc(C4CCN(C(=O)c5cnn(C)c5)CC4)cc3c2C(C)C)cc(C)n1` [Example 132, (4-(2-(2,6-dimethylpyridin-4-yl)-3-isopropyl-1H-indol-5-yl)piperidin-1-yl)(1-methyl-1H-pyrazol-4-yl)methanone] are 90.8 nM, 4.2 nM and 46900 nM.
With `Cc1cc(-c2[nH]c3ccc(C4CCN(C(=O)C5(C(N)=O)CC5)CC4)cc3c2C(C)C)cc(C)n1` [Example 133, 1-(4-(2-(2,6-dimethylpyridin-4-yl)-3-isopropyl-1H-indol-5-yl)piperidine-1-carbonyl)cyclopropane-1-carboxamide], the IC50 on human TLR8 (setting [1]) was 61.7 nM; against human TLR7, 12.4 nM; at human TLR9 (setting [2]), above 50000 nM.
On to `CC(=O)N(C)CCC(=O)N1CCC(c2ccc3[nH]c(-c4cc(C)nc(C)c4)c(C(C)C)c3c2)CC1` [Example 134, N-(3-(4-(2-(2,6-dimethylpyridin-4-yl)-3-isopropyl-1H-indol-5-yl)piperidin-1-yl)-3-oxopropyl)-N-methylacetamide], for which the IC50 at human TLR8 (setting [1]) came to 90.3 nM; against human TLR7, 11.4 nM; at human TLR9 (setting [2]) it was 34600 nM.
Turning to `Cc1cc(C(=O)N2CCC(c3ccc4[nH]c(-c5cc(C)nc(C)c5)c(C(C)C)c4c3)CC2)c(=O)[nH]n1` [Example 135, 4-(4-(2-(2,6-dimethylpyridin-4-yl)-3-isopropyl-1H-indol-5-yl)piperidine-1-carbonyl)-6-methylpyridazin-3 (2H)-one], the IC50 amounted to 99.9 nM on human TLR8 (setting [1]), 33.1 nM at human TLR7 and 13300 nM on human TLR9 (setting [2]).
As to `Cc1cc(-c2[nH]c3ccc(C4CCN(C(=O)Cc5cc(C)nn5C)CC4)cc3c2C(C)C)cc(C)n1` [Example 136, 2-(1,3-dimethyl-1H-pyrazol-5-yl)-1-(4-(2-(2,6-dimethylpyridin-4-yl)-3-isopropyl-1H-indol-5-yl)piperidin-1-yl)ethan-1-one], the IC50 on human TLR8 (setting [1]) is 134 nM; at human TLR7, 23.3 nM; on human TLR9 (setting [2]), 30000 nM.
Taken in the same sequence, the figures for `Cc1cc(-c2[nH]c3ccc(C4CCN(C(=O)Cc5cn(C)cn5)CC4)cc3c2C(C)C)cc(C)n1` [Example 137, 1-(4-(2-(2,6-dimethylpyridin-4-yl)-3-isopropyl-1H-indol-5-yl)piperidin-1-yl)-2-(1-methyl-1H-imidazol-4-yl)ethan-1-one] were 39.1 nM, 8.2 nM and 1780 nM.
On to `Cc1cc(-c2[nH]c3ccc(C4CCN(C(=O)Cc5cc(N)n[nH]5)CC4)cc3c2C(C)C)cc(C)n1` [Example 139, 2-(3-amino-1H-pyrazol-5-yl)-1-(4-(2-(2,6-dimethylpyridin-4-yl)-3-isopropyl-1H-indol-5-yl)piperidin-1-yl)ethan-1-one], for which the half-maximal inhibitory concentration (IC50) against human TLR8 (TLR8 IC50, HEK-Blue cells overexpressing human TLR8, R848 15.9 μM) was 47.7 nM; at human TLR7, 5.7 nM; on human TLR9 (TLR9 IC50, HEK-Blue cells overexpressing human TLR9, ODN2006 5 nM) it was 8860 nM.
With `Cc1cc(-c2[nH]c3ccc(C4CCN(C(=O)c5cn(C)nc5C)CC4)cc3c2C(C)C)cc(C)n1` [Example 141, (1,3-dimethyl-1H-pyrazol-4-yl)(4-(2-(2,6-dimethylpyridin-4-yl)-3-isopropyl-1H-indol-5-yl)piperidin-1-yl)methanone], the half-maximal inhibitory concentration (IC50) at human TLR8 (setting [1]) turned out to be 60.5 nM; against human TLR7, 4.8 nM; on human TLR9 (setting [2]) it was 40000 nM.
`Cc1cc(-c2[nH]c3ccc(C4CCN(C(=O)CC(=O)Nc5nccs5)CC4)cc3c2C(C)C)cc(C)n1` [Example 142, 3-(4-(2-(2,6-dimethylpyridin-4-yl)-3-isopropyl-1H-indol-5-yl)piperidin-1-yl)-3-oxo-N-(thiazol-2-yl)propanamide]: the figures for the IC50 on human TLR8 (setting [1]), on human TLR7 and at human TLR9 (setting [2]) were 96.3 nM, 18.2 nM and above 50000 nM, respectively.
